According to publication PMC10221074, “Functional Profiling of the A-Family of Venom Peptides from the Wolf Spider Lycosa shansia” (Toxins, 2023):

Columns and labels:
[1] = system: Escherichia coli BL21(DE3); assay: Antibacterial growth assay (OD600); details: for Bacterial growth relative to medium, E. coli, replicate 1 / Bacterial growth relative to medium, E. coli, replicate 2 / Bacterial growth relative to medium, E. coli, replicate 3: OD600, medium = 100, MH II broth, 37 °C, peptide 200 µM mixed 50 µL + 50 µL with bacteria, Figure 7: 48 h; for Bacterial growth relative to medium, E. coli, replicate 1: replicate column 1; for Bacterial growth relative to medium, E. coli, replicate 2: replicate column 2; for Bacterial growth relative to medium, E. coli, replicate 3: replicate column 3
[2] = system: Pseudomonas aeruginosa DSM 1117; assay: Antibacterial growth assay (OD600); details: OD600, medium = 100, MH II broth, 37 °C, peptide 200 µM mixed 50 µL + 50 µL with bacteria, Figure 7: 48 h; for Bacterial growth relative to medium, P. aeruginosa (1117), replicate 1: replicate column 1; for Bacterial growth relative to medium, P. aeruginosa (1117), replicate 2: replicate column 2; for Bacterial growth relative to medium, P. aeruginosa (1117), replicate 3: replicate column 3
[3] = system: Micrococcus luteus DSM 20030; assay: Antibacterial growth assay (OD600); details: for Antibacterial activity (in words): M. luteus DSM 20030, growth after 48 h; for Bacterial growth relative to medium, M. luteus, replicate 1 / Bacterial growth relative to medium, M. luteus, replicate 2 / Bacterial growth relative to medium, M. luteus, replicate 3: OD600, medium = 100, MH II broth, 37 °C, peptide 200 µM mixed 50 µL + 50 µL with bacteria, Figure 7: 48 h; for Bacterial growth relative to medium, M. luteus, replicate 1: replicate column 1; for Bacterial growth relative to medium, M. luteus, replicate 2: replicate column 2; for Bacterial growth relative to medium, M. luteus, replicate 3: replicate column 3
Description: (§1) Cryo-conserved cultures of selected bacterial strains (Table 4) were transferred to Tryptic Soy Agar (TSA) plates (Carl Roth) with a sterile inoculation loop, sealed with Parafilm (BEMIS, Neenah, WI, USA), and incubated for 1–2 days at 37 °C depending on growth. Single colonies were picked and transferred into 2–3 mL of the Mueller–Hinton II (MH II) broth (BD, Heidelberg, Germany). The bacteria were cultivated overnight, subcultured on fresh medium and grown for 3–4 h before testing at 37 °C, with shaking at 180 rpm. We measured the optical density at 600 nm (OD600) of 1 mL of the bacterial suspensions in polystyrene cuvettes (SARSTED, Nümbrecht, Germany) using an Ultrospec 10 spectrophotometer (Biochrome, Cambridge, UK). We then diluted them with the MH II medium to the preferred OD600 (Table 2). The peptides were dissolved in DMSO to generate 10 mmol/L stocks and diluted with the MH II medium to 200 µM before the assay. We used 10 µg/mL (~40 µg/mL for S. epidermidis) gentamicin and colistin (Sigma-Aldrich, Taufkirchen, Germany), DMSO and the medium only as controls. The bacteria were transferred to 96-multiwell plates with a final volume of 100 µL per well (50 µL bacterial suspension, and 50 µL test peptide). The OD600 was measured at 0, 24 and 48 h using a BioTek Eon microplate reader followed by analysis with Gen5 v2.09.

A/Hessen/1/2003 (H3N2) = type: cell-based, influenza virus
A/Hamburg/05/2009 (H1N1) = type: cell-based, influenza virus
[4] = system: Pseudomonas aeruginosa DSM 50071; assay: Antibacterial growth assay (OD600); details: OD600, medium = 100, MH II broth, 37 °C, peptide 200 µM mixed 50 µL + 50 µL with bacteria, Figure 7: 48 h; for Bacterial growth relative to medium, P. aeruginosa (50071), replicate 1: replicate column 1; for Bacterial growth relative to medium, P. aeruginosa (50071), replicate 2: replicate column 2; for Bacterial growth relative to medium, P. aeruginosa (50071), replicate 3: replicate column 3
[5] = system: panel of seven bacterial strains; assay: Antibacterial growth assay (OD600), statements on the whole panel; type: cell-based; details: growth after 48 h
[6] = system: Staphylococcus aureus DSM 2569; assay: Antibacterial growth assay (OD600); details: for Bacterial growth relative to medium, S. aureus, replicate 1 / Bacterial growth relative to medium, S. aureus, replicate 2 / Bacterial growth relative to medium, S. aureus, replicate 3: OD600, medium = 100, MH II broth, 37 °C, peptide 200 µM mixed 50 µL + 50 µL with bacteria, Figure 7: 48 h; for Bacterial growth relative to medium, S. aureus, replicate 1: replicate column 1; for Bacterial growth relative to medium, S. aureus, replicate 2: replicate column 2; for Bacterial growth relative to medium, S. aureus, replicate 3: replicate column 3
[7] = system: Listeria monocytogenes DSM 20600; assay: Antibacterial growth assay (OD600); details: for Bacterial growth relative to medium, L. monocytogenes, replicate 1 / Bacterial growth relative to medium, L. monocytogenes, replicate 2 / Bacterial growth relative to medium, L. monocytogenes, replicate 3: OD600, medium = 100, MH II broth, 37 °C, peptide 200 µM mixed 50 µL + 50 µL with bacteria, Figure 7: 48 h; for Bacterial growth relative to medium, L. monocytogenes, replicate 1: replicate column 1; for Bacterial growth relative to medium, L. monocytogenes, replicate 2: replicate column 2; for Bacterial growth relative to medium, L. monocytogenes, replicate 3: replicate column 3
Description: as §1

G. mellonella larvae = assay: Insecticidal activity by injection into larvae; type: in vivo, Galleria mellonella; details: 50 ng peptide injected, 3 cohorts of 10 larvae, survival monitored for 5 days
Description: Insecticidal activity was determined using fourth and fifth instar G. mellonella larvae (L4/L5) obtained from Fauna Topics Zoobedarf Zucht und Handels GmbH (Marbach am Neckar, Germany). Because spider venom is injected via chelicerae, we opted for an injection-based assay to reflect the natural process of envenomation as described earlier. The peptides were dissolved in a 1:1 mixture of DMSO and water to a final concentration of 10 mmol/L. We injected 50 ng of each peptide into the pseudopodium using Omnican-F, 0.30 × 12 mm/G 30 × 1/2”, a 1 mL syringe adjusted to a WPI manual microsyringe injector setup. Injections with water, DMSO/water (1:1) and ethanol (90%) were used as controls, alongside untreated specimens. Insecticidal activity screenings were performed in cohorts of 10 larvae with 3 replicates (30 specimens per treatment or control). […] Survival was monitored every 24 h for 5 days. Mortality was calculated based on the ratio of dead to injected specimens.

[8] = system: B/Malaysia/2506/2004 (B-Mal); type: cell-based, influenza virus
[9] = system: Staphylococcus epidermidis DSM 28319; assay: Antibacterial growth assay (OD600); details: for Bacterial growth relative to medium, S. epidermidis, replicate 1 / Bacterial growth relative to medium, S. epidermidis, replicate 2 / Bacterial growth relative to medium, S. epidermidis, replicate 3: OD600, medium = 100, MH II broth, 37 °C, peptide 200 µM mixed 50 µL + 50 µL with bacteria, Figure 7: 48 h; for Bacterial growth relative to medium, S. epidermidis, replicate 1: replicate column 1; for Bacterial growth relative to medium, S. epidermidis, replicate 2: replicate column 2; for Bacterial growth relative to medium, S. epidermidis, replicate 3: replicate column 3
Description: as §1

Sequence	Bacterial growth relative to medium, E. coli, replicate 1 [1]	Bacterial growth relative to medium, E. coli, replicate 2 [1]	Bacterial growth relative to medium, E. coli, replicate 3 [1]	Bacterial growth relative to medium, P. aeruginosa (1117), replicate 1 [2]	Bacterial growth relative to medium, P. aeruginosa (1117), replicate 2 [2]	Bacterial growth relative to medium, P. aeruginosa (1117), replicate 3 [2]	Antibacterial activity (in words) [3]	Bacterial growth relative to medium, M. luteus, replicate 1 [3]	Bacterial growth relative to medium, M. luteus, replicate 2 [3]	Bacterial growth relative to medium, M. luteus, replicate 3 [3]	Viability of infected cells relative to aprotinin, Replicate 1 (A/Hessen/1/2003 (H3N2))	Viability of infected cells relative to aprotinin, Replicate 2 (A/Hessen/1/2003 (H3N2))	Viability of infected cells relative to aprotinin, Replicate 3 (A/Hessen/1/2003 (H3N2))	Viability of infected cells relative to aprotinin, Replicate 1 (A/Hamburg/05/2009 (H1N1))	Viability of infected cells relative to aprotinin, Replicate 2 (A/Hamburg/05/2009 (H1N1))	Viability of infected cells relative to aprotinin, Replicate 3 (A/Hamburg/05/2009 (H1N1))	Bacterial growth relative to medium, P. aeruginosa (50071), replicate 1 [4]	Bacterial growth relative to medium, P. aeruginosa (50071), replicate 2 [4]	Bacterial growth relative to medium, P. aeruginosa (50071), replicate 3 [4]	Antibacterial activity over the panel (in words) [5]	other results
LLDVVKSKIGQTGLL [LS-AMP-A16]	67.9376	59.8494	34.0285	71.8168	74.7999	64.6393	able to decrease the growth	57.3268	84.1216	27.4989	0.0324	0.05366	0.1082	0.02774	0.02676	0.01877	93.645	105.945	72.2488	broad activity against all tested bacteria except P. aeruginosa DSM50071	Antibacterial activity (in words) ([1]; E. coli BL21(DE3), growth after 48 h): able to decrease the growth; Bacterial growth relative to medium, S. aureus, replicate 1 [6]: 50.7381; Bacterial growth relative to medium, S. aureus, replicate 2 [6]: 99.8365; Bacterial growth relative to medium, S. aureus, replicate 3 [6]: 66.4796; Antibacterial activity (in words) ([6]; S. aureus DSM 2569, growth after 48 h): able to decrease the growth; Antibacterial activity (in words) ([7]; L. monocytogenes DSM 20600, growth after 48 h): able to decrease the growth; Bacterial growth relative to medium, L. monocytogenes, replicate 1 [7]: 81.5984; Bacterial growth relative to medium, L. monocytogenes, replicate 2 [7]: 58.0902; Bacterial growth relative to medium, L. monocytogenes, replicate 3 [7]: 20.8033; Insecticidal effect on larvae (in words) (G. mellonella larvae): Individual dead insects; Viability of infected cells relative to aprotinin, Replicate 1 [8]: 0.002646; Viability of infected cells relative to aprotinin, Replicate 2 [8]: 0.01088; Viability of infected cells relative to aprotinin, Replicate 3 [8]: 0.03862; Bacterial growth relative to medium, S. epidermidis, replicate 1 [9]: 52.6925; Bacterial growth relative to medium, S. epidermidis, replicate 2 [9]: 45.3012; Bacterial growth relative to medium, S. epidermidis, replicate 3 [9]: 72.1389; Antibacterial activity (in words) ([9]; S. epidermidis DSM 28319, growth after 48 h): able to decrease the growth
SLLGLLDVVKNTVGQT [LS-AMP-A10]	81.6291	64.3105	57.0069	65.0772	90.1148	64.0892	no activity	61.1915	88.7389	35.3419	0.05441	0.1761	0.1729	0.0352	0.02417	0.03391	97.2952	110.352	83.9978	inhibited the growth of most of the bacteria except two	Viability of infected cells relative to aprotinin, Replicate 4 (A/Hessen/1/2003 (H3N2); […], replicate 4 (additional internal control)): 0.1942; Bacterial growth relative to medium, S. aureus, replicate 1 [6]: 64.1206; Bacterial growth relative to medium, S. aureus, replicate 2 [6]: 64.9771; Bacterial growth relative to medium, S. aureus, replicate 3 [6]: 91.1709; Bacterial growth relative to medium, L. monocytogenes, replicate 1 [7]: 109.148; Bacterial growth relative to medium, L. monocytogenes, replicate 2 [7]: 78.161; Bacterial growth relative to medium, L. monocytogenes, replicate 3 [7]: 28.6946; Insecticidal effect on larvae (in words) (G. mellonella larvae): Individual dead insects; Viability of infected cells relative to aprotinin, Replicate 1 [8]: 0.07328; Viability of infected cells relative to aprotinin, Replicate 2 [8]: 0.09773; Viability of infected cells relative to aprotinin, Replicate 3 [8]: 0.07183; Bacterial growth relative to medium, S. epidermidis, replicate 1 [9]: 79.4001; Bacterial growth relative to medium, S. epidermidis, replicate 2 [9]: 71.0012; Bacterial growth relative to medium, S. epidermidis, replicate 3 [9]: 83.073
